Measurements: PubChem BioAssay (NCI)
Values joined by “and” are separate entries in the source; they are usually repeats but may differ in a detail not shown here. Equal entries are not always repeated.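 Each compound was tested at five concentrations against cells in 96-well plates for 48 hours. GI50 = concentration required for 50% inhibition of growth. TGI is the concentration that stops growth completely.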

Tests used:
Assay in all cases: growth of human tumour cells (NCI), 48 h
SF-539 CNS = test system: SF-539 CNS
UACC-62 melanoma = test system: UACC-62 melanoma
CAKI-1 renal = test system: CAKI-1 renal
NCI-H226 lung = test system: NCI-H226 lung
SK-MEL-2 melanoma = test system: SK-MEL-2 melanoma
CCRF-CEM leukemia = test system: CCRF-CEM leukemia
LOX IMVI melanoma = test system: LOX IMVI melanoma
EKVX NSCLC = test system: EKVX NSCLC
SNB-19 CNS = test system: SNB-19 CNS

Compound `CCC1C(=O)OCc2c1cc1n(c2=O)Cc2ccccc2-1` (centres undefined) has a TGI (SF-539 CNS) of over 100 µM, a TGI (UACC-62 melanoma) of over 100 µM and a TGI (CAKI-1 renal) of over 100 µM. For the same compound, the TGI (NCI-H226 lung) was over 100 µM, the TGI (SK-MEL-2 melanoma) was over 100 µM and the TGI (CCRF-CEM leukemia) was over 100 µM. For the same compound, the TGI (LOX IMVI melanoma) was over 100 µM, the TGI (EKVX NSCLC) was over 100 µM and the TGI (SNB-19 CNS) was over 100 µM.
Work on `O=C(/C=C/c1ccc(OCCCOc2ccc(/C=C/C(=O)c3ccc(Cl)cc3)cc2)cc1)c1ccc(Cl)cc1` yielded a TGI (SF-539 CNS) of over 100 µM, a TGI (UACC-62 melanoma) of over 100 µM and a TGI (CAKI-1 renal) of over 100 µM. The TGI (NCI-H226 lung) was over 100 µM, the TGI (SK-MEL-2 melanoma) was over 100 µM and the TGI (CCRF-CEM leukemia) was over 100 µM. It also gave a TGI (LOX IMVI melanoma) of over 100 µM, a TGI (EKVX NSCLC) of over 100 µM and a TGI (SNB-19 CNS) of over 100 µM.
`NC(=O)COc1ccc(Br)cc1Br` was tested, and the TGI (SF-539 CNS) was over 100 µM, the TGI (CAKI-1 renal) was over 100 µM and the TGI (NCI-H226 lung) was over 100 µM. It also gave a TGI (SK-MEL-2 melanoma) of over 100 µM, a TGI (EKVX NSCLC) of over 100 µM and a TGI (SNB-19 CNS) of over 100 µM.
For `COc1ccc(CN[C@H]2CCc3cc(OC)c(OC)c(OC)c3-c3ccc(SC)c(=O)cc32)c(OC)c1OC`, the GI50 (SF-539 CNS) was 0.01 µM, the TGI (SF-539 CNS) was 0.0478 µM and 0.0387 µM and the TGI (UACC-62 melanoma) was 19.1 µM. The TGI (CAKI-1 renal) was over 100 µM, the GI50 (NCI-H226 lung) was 0.0172 µM and the TGI (NCI-H226 lung) was 0.0736 µM and 0.0509 µM. The GI50 (SK-MEL-2 melanoma) was 0.0118 µM, the GI50 (CCRF-CEM leukemia) was 0.0107 µM and the TGI (CCRF-CEM leukemia) was 5.46 µM. For the same compound, the GI50 (LOX IMVI melanoma) was under 0.01 µM, the TGI (LOX IMVI melanoma) was 15.7 µM and the TGI (EKVX NSCLC) was over 100 µM. For the same compound, the TGI (SNB-19 CNS) was over 100 µM.
`C/C(CC(=O)Nc1cc(Cl)c(Cl)cc1Cl)=N\NS(=O)(=O)c1ccc(C)cc1` gave a TGI (SF-539 CNS) of 85.8 µM, a TGI (UACC-62 melanoma) of 75.9 µM and a TGI (NCI-H226 lung) of 53 µM. The TGI (SK-MEL-2 melanoma) was 86.8 µM, the TGI (CCRF-CEM leukemia) was over 100 µM and the TGI (LOX IMVI melanoma) was over 100 µM. It also gave a TGI (EKVX NSCLC) of over 100 µM.
With `Cc1nc(=O)n2c(c1C(=O)Nc1ccc(Cl)cc1)NCCC2` the TGI (SF-539 CNS) was over 100 µM, the TGI (UACC-62 melanoma) was over 100 µM and the TGI (CAKI-1 renal) was over 100 µM. The TGI (NCI-H226 lung) was over 100 µM, the TGI (SK-MEL-2 melanoma) was over 100 µM and the TGI (CCRF-CEM leukemia) was over 100 µM. For the same compound, the TGI (LOX IMVI melanoma) was over 100 µM, the TGI (EKVX NSCLC) was over 100 µM and the TGI (SNB-19 CNS) was over 100 µM.
Compound `CC(C)N(C(=O)C12C3C4C5C3C1(C(=O)N(C(C)C)C(C)C)C5C42)C(C)C` (centres undefined) has a TGI (SF-539 CNS) of over 100 µM, a TGI (UACC-62 melanoma) of over 100 µM and a TGI (CAKI-1 renal) of over 100 µM. The TGI (NCI-H226 lung) was over 100 µM, the TGI (SK-MEL-2 melanoma) was over 100 µM and the TGI (CCRF-CEM leukemia) was over 68.3 µM. The TGI (LOX IMVI melanoma) was over 69.5 µM, the TGI (EKVX NSCLC) was over 100 µM and the TGI (SNB-19 CNS) was over 100 µM.
`CC(C(=O)C(C)O[Si](c1ccccc1)(c1ccccc1)C(C)(C)C)=P(c1ccccc1)(c1ccccc1)c1ccccc1` (centres undefined) was tested, and the TGI (SF-539 CNS) was 13.4 µM, the TGI (UACC-62 melanoma) was 14.4 µM and the TGI (NCI-H226 lung) was 10.6 µM. For the same compound, the TGI (SK-MEL-2 melanoma) was 7.64 µM, the TGI (CCRF-CEM leukemia) was 15.8 µM and the TGI (LOX IMVI melanoma) was 11.1 µM. It also gave a TGI (EKVX NSCLC) of 29.2 µM and a TGI (SNB-19 CNS) of 14.5 µM.
With `COc1cccc(C2N3CCCCC3[C@@H]3c4[nH]c5ccccc5c4CCN23)c1OC` (some centres undefined) the TGI (SF-539 CNS) was 28.5 µM, the TGI (UACC-62 melanoma) was 24 µM and the TGI (CAKI-1 renal) was 33.5 µM. It also gave a TGI (SK-MEL-2 melanoma) of 29.2 µM, a TGI (CCRF-CEM leukemia) of 35.4 µM and a TGI (EKVX NSCLC) of 32 µM. For the same compound, the TGI (SNB-19 CNS) was 24.3 µM.
Compound `COC(=O)C([O][Ge]([CH3])([CH3])[CH3])c1ccccc1` (centres undefined) has a GI50 (SF-539 CNS) of over 100 µM, a TGI (SF-539 CNS) of over 100 µM and a GI50 (UACC-62 melanoma) of over 100 µM. For the same compound, the TGI (UACC-62 melanoma) was over 100 µM, the GI50 (CAKI-1 renal) was over 100 µM and the TGI (CAKI-1 renal) was over 100 µM. The GI50 (NCI-H226 lung) was over 100 µM, the TGI (NCI-H226 lung) was over 100 µM and the GI50 (CCRF-CEM leukemia) was over 100 µM. It also gave a TGI (CCRF-CEM leukemia) of over 100 µM, a GI50 (LOX IMVI melanoma) of over 100 µM and a TGI (LOX IMVI melanoma) of over 100 µM. For the same compound, the GI50 (EKVX NSCLC) was over 100 µM, the TGI (EKVX NSCLC) was over 100 µM and the GI50 (SNB-19 CNS) was over 100 µM. The TGI (SNB-19 CNS) was over 100 µM.
Work on `CC(=O)OC1CC2C(C)(C)C(=O)C=C[C@]2(C)C2CCC3(C)C(=CCC3[C@H](CO)C[C@H](O)C(=O)C(C)(C)O)[C@]12C` (some centres undefined) yielded a TGI (SF-539 CNS) of 35.1 µM, a TGI (UACC-62 melanoma) of 31.6 µM and a TGI (CAKI-1 renal) of 55.3 µM. For the same compound, the TGI (NCI-H226 lung) was 42.2 µM, the TGI (SK-MEL-2 melanoma) was 51.3 µM and the TGI (CCRF-CEM leukemia) was 66.3 µM. It also gave a TGI (LOX IMVI melanoma) of 33.6 µM, a TGI (EKVX NSCLC) of 38.5 µM and a TGI (SNB-19 CNS) of over 100 µM.
With `O=C1/C(=C/c2ccc(Cl)cc2)COc2ccc(Br)cc21` the TGI (SF-539 CNS) was over 100 µM, the TGI (SK-MEL-2 melanoma) was over 100 µM and the TGI (CCRF-CEM leukemia) was over 100 µM. For the same compound, the TGI (LOX IMVI melanoma) was over 100 µM and the TGI (EKVX NSCLC) was over 100 µM.
`c1cc[c]([Sn]([O]c2cccc3cccnc23)([c]2ccccc2)[c]2ccccc2)cc1` showed a GI50 (SF-539 CNS) of 0.0195 µM, a TGI (SF-539 CNS) of 0.0387 µM and a GI50 (UACC-62 melanoma) of under 0.01 µM. It also gave a TGI (UACC-62 melanoma) of 0.0188 µM, a GI50 (CAKI-1 renal) of 0.0188 µM and a TGI (CAKI-1 renal) of 0.0852 µM. For the same compound, the GI50 (NCI-H226 lung) was 0.0454 µM, the TGI (NCI-H226 lung) was 0.153 µM and the GI50 (SK-MEL-2 melanoma) was 0.0217 µM. For the same compound, the TGI (SK-MEL-2 melanoma) was 0.059 µM, the GI50 (CCRF-CEM leukemia) was 0.0115 µM and the TGI (CCRF-CEM leukemia) was 0.11 µM. It also gave a GI50 (LOX IMVI melanoma) of 0.0132 µM, a TGI (LOX IMVI melanoma) of 0.0261 µM and a GI50 (EKVX NSCLC) of 0.0416 µM. For the same compound, the TGI (EKVX NSCLC) was 0.17 µM, the GI50 (SNB-19 CNS) was 0.04 µM and the TGI (SNB-19 CNS) was 0.127 µM.
Compound `COc1ccccc1NC(=O)NS(=O)(=O)c1ccccc1` has a TGI (SF-539 CNS) of over 100 µM, a TGI (CAKI-1 renal) of over 100 µM and a TGI (NCI-H226 lung) of over 100 µM. It also gave a TGI (SK-MEL-2 melanoma) of over 100 µM, a TGI (LOX IMVI melanoma) of over 100 µM and a TGI (EKVX NSCLC) of over 100 µM. It also gave a TGI (SNB-19 CNS) of over 100 µM.
`COc1cc2ccc(C(=O)O)cc2cc1OC` was tested, and the TGI (SF-539 CNS) was over 100 µM, the TGI (UACC-62 melanoma) was over 100 µM and the TGI (NCI-H226 lung) was over 100 µM. It also gave a TGI (SK-MEL-2 melanoma) of over 100 µM, a TGI (CCRF-CEM leukemia) of over 100 µM and a TGI (LOX IMVI melanoma) of over 100 µM. It also gave a TGI (EKVX NSCLC) of over 100 µM and a TGI (SNB-19 CNS) of over 100 µM.
`CC(C)=CCCC1(C)C=Cc2c(ccc3c2[nH]c2cc(O)c(C)cc23)O1` (centres undefined) gave a GI50 (SF-539 CNS) of 4.59 µM, a TGI (SF-539 CNS) of 9.78 µM and a GI50 (UACC-62 melanoma) of 9.4 µM. It also gave a TGI (UACC-62 melanoma) of over 25 µM, a GI50 (NCI-H226 lung) of 7.02 µM and a TGI (NCI-H226 lung) of 14.6 µM. The GI50 (SK-MEL-2 melanoma) was 6.47 µM, the TGI (SK-MEL-2 melanoma) was over 25 µM and the GI50 (CCRF-CEM leukemia) was 4.97 µM. The TGI (CCRF-CEM leukemia) was 15.2 µM, the GI50 (LOX IMVI melanoma) was 4.53 µM and the TGI (LOX IMVI melanoma) was 8.19 µM. For the same compound, the GI50 (SNB-19 CNS) was over 25 µM and the TGI (SNB-19 CNS) was over 25 µM.
